Measured values reported in patent publication US20110021565A1, “PIPERIDINE DERIVATIVES AS NK3 ANTAGONISTS” (priority 2007, published 2011).
Like-named read-outs stand apart in the source and are kept apart here.

Molecular target: T1, recombinant human NK3 receptor (Homo sapiens, UniProt P29371)
T1 construct: expressed in transfected cells; host or cells: HEK293 cells, transient expression; membrane preparation
T1 sequence (P29371 1-465): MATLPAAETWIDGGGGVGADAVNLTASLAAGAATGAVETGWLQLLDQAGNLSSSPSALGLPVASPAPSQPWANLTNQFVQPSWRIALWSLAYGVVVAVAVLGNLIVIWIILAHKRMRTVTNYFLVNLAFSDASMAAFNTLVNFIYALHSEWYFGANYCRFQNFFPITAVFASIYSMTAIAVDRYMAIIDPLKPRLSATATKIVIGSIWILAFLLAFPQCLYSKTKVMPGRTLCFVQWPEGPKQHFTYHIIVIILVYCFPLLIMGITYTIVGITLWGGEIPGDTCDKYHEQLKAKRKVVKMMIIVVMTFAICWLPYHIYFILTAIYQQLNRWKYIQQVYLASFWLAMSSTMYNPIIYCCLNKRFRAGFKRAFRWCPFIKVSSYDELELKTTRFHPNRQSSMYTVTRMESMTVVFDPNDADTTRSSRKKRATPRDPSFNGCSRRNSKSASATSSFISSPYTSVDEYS
Experiment: [3H]SR142801 competition binding assay
In short: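 Membranes from HEK293 cells transiently expressing the receptor (5 μg protein/well) incubated 75 min at RT with [3H]SR142801 at its KD and 10 compound concentrations (0.0003-10 μM), in pH 7.4 Tris buffer with MnCl2, phosphoramidon and BSA. Nonspecific binding defined with 10 μM SB222200; bound radioactivity counted after filtration. Ki from IC50 via Cheng-Prusoff; duplicates.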

[1] = [3H]SR142801, membranes of HEK293 cells transiently expressing recombinant human NK3 receptor, read-out: hNK3 Ki
[2] = representative compounds, [3H]SR142801, HEK293 membranes, human NK3 receptor, read-out: Ki NK3 h

| Structure (SMILES) | Ki [1] [nM] | Ki [2] [nM] |
| --- | --- | --- |
| CCCN(C(C)=O)C1CCN(CCC(C)(C(=O)N[C@@H](CC)c2ccccc2)c2ccc(Cl)c(Cl)c2)CC1 (stereo partly drawn) [Example 164, 4-[4-(Acetyl-propyl-amino)-piperidin-1-yl]-2-(3,4-dichloro-phenyl)-2-methyl-N-((S)-1-phenyl-propyl)-butyramide] | 0.8 | 0.8 |
| COCCN(C(C)=O)C1CCN(CCC(C)(C(=O)N[C@@H](CO)c2ccc(F)cc2)c2ccc(Cl)c(Cl)c2)CC1 (single isomer, unassigned) [Example 151, 4-{4-[Acetyl-(2-methoxy-ethyl)-amino]-piperidin-1-yl}-2-(3,4-dichloro-phenyl)-N-[(R)-1-(4-fluoro-phenyl)-2-hydroxy-ethyl]-2-(S or R) methyl-butyramide] | 21.1 |  |
| CN(Cc1ccc(Cl)c(Cl)c1)C(=O)C(C)(CCN1CCC(N(C2CC2)S(C)(=O)=O)CC1)c1ccc(Cl)c(Cl)c1 (stereo not shown) [Example 60, 4-[4-(Cyclopropyl-methanesulfonyl-amino)-piperidin-1-yl]-N-(3,4-dichloro-benzyl)-2-(3,4-dichloro-phenyl)-2,N-dimethyl-butyramide] | 2.6 | 2.6 |
| CC(c1ccc(F)c(C(F)(F)F)c1)N(C)C(=O)C(C)(CCN1CCC(N2CCCC2=O)CC1)c1ccc(Cl)c(Cl)c1 (stereo not shown) [Example 126, 2-(3,4-Dichloro-phenyl)-N-[1-(4-fluoro-3-trifluoromethyl-phenyl)-ethyl]-2,N-dimethyl-4-[4-(2-oxo-pyrrolidin-1-yl)-piperidin-1-yl]-butyramide] | 30.3 |  |
| CN(Cc1ccc(Cl)c(C(F)(F)F)c1)C(=O)C(F)(CCN1CCC(N(C)S(C)(=O)=O)CC1)c1ccc(Cl)c(Cl)c1 (stereo not shown) [Example 54, N-(4-Chloro-3-trifluoromethyl-benzyl)-2-(3,4-dichloro-phenyl)-2-fluoro-4-[4-(methanesulfonyl-methyl-amino)-piperidin-1-yl]-N-methyl-butyramide] | 24.5 |  |
| CC(CCN1CCC(NS(C)(=O)=O)CC1)(C(=O)NCc1cc(C(F)(F)F)ccc1F)c1ccc(Cl)c(Cl)c1 (stereo not shown) [Example 15, 2-(3,4-Dichloro-phenyl)-N-(2-fluoro-5-trifluoromethyl-benzyl)-4-(4-methanesulfonyl-amino-piperidin-1-yl)-2-methyl-butyramide] | 166 |  |
| CC(CCN1CCC(NS(C)(=O)=O)CC1)(C(=O)NCc1ccc(C(F)(F)F)cc1)c1ccc(Cl)c(Cl)c1 (stereo not shown) [Example 14, 2-(3,4-Dichloro-phenyl)-4-(4-methanesulfonyl-amino-piperidin-1-yl)-2-methyl-N-(4-trifluoromethyl-benzyl)-butyramide] | 58 |  |
| CN(Cc1ccc(Cl)c(C(F)(F)F)c1)C(=O)C(C)(CCN1CCC(NS(C)(=O)=O)CC1)c1ccc(Cl)c(Cl)c1 (stereo not shown) [Example 8, N-(4-Chloro-3-trifluoromethyl-benzyl)-2-(3,4-dichloro-phenyl)-4-(4-methanesulfonyl-amino-piperidin-1-yl)-2,N-dimethyl-butyramide] | 22.6 |  |
| CC(=O)N(C)C1CCN(CCC(C)(C(=O)N(C)Cc2ccc(Cl)c(Cl)c2)c2ccc(Cl)c(Cl)c2)CC1 (stereo not shown) [Example 100, 4-[4-(Acetyl-methyl-amino)-piperidin-1-yl]-N-(3,4-dichloro-benzyl)-2-(3,4-dichloro-phenyl)-2,N-dimethyl-butyramide] | 3 | 3 |
| CN(Cc1ccccc1Cl)C(=O)C(CCN1CCC(NS(C)(=O)=O)CC1)c1ccc(Cl)c(Cl)c1 (stereo not shown) [Example 41, N-(2-Chloro-benzyl)-2-(3,4-dichloro-phenyl)-4-(4-methanesulfonyl-amino-piperidin-1-yl)-N-methyl-butyramide] | 259 |  |
| CC(CCN1CCC(NS(C)(=O)=O)CC1)(C(=O)NCc1cc(F)ccc1C(F)(F)F)c1ccc(Cl)c(Cl)c1 (stereo not shown) [Example 13, 2-(3,4-Dichloro-phenyl)-N-(5-fluoro-2-trifluoromethyl-benzyl)-4-(4-methanesulfonyl-amino-piperidin-1-yl)-2-methyl-butyramide] | 580 |  |
| COc1ccc(C(CCN2CCC(N3CCCC3=O)CC2)C(=O)N(C)Cc2ccc(Cl)cc2)cc1 (stereo not shown) [Example 113, N-(4-Chloro-benzyl)-2-(4-methoxy-phenyl)-N-methyl-4-[4-(2-oxo-pyrrolidin-1-yl)-piperidin-1-yl]-butyramide] | 775 |  |
| CC(NC(=O)C(C)(CCN1CCC(N2CCCC2=O)CC1)c1ccc(Cl)c(Cl)c1)c1ccccc1 (stereo not shown) [Example 91, 2-(3,4-Dichloro-phenyl)-2-methyl-4-[4-(2-oxo-pyrrolidin-1-yl)-piperidin-1-yl]-N-(1-phenyl-ethyl)-butyramide] | 51.2 |  |
| CN(C)c1ccc(CNC(=O)C(C)(CCN2CCC(NS(C)(=O)=O)CC2)c2ccc(Cl)c(Cl)c2)cc1 (stereo not shown) [Example 7, 2-(3,4-Dichloro-phenyl)-N-(4-dimethylamino-benzyl)-4-(4-methanesulfonyl-amino-piperidin-1-yl)-2-methyl-butyramide] | 621 |  |
| CCN(C1CCN(CCC(C)(C(=O)N(C)Cc2ccc(C(F)(F)F)c(F)c2)c2ccc(Cl)c(Cl)c2)CC1)S(C)(=O)=O (stereo not shown) [Example 69, 2-(3,4-Dichloro-phenyl)-4-[4-(ethyl-methanesulfonyl-amino)-piperidin-1-yl]-N-(3-fluoro-4-trifluoromethyl-benzyl)-2,N-dimethyl-butyramide] | 2.4 | 2.4 |
| CC[C@H](NC(=O)C(C)(CCN1CCC(N(CCOC)C(C)=O)CC1)c1ccc(Cl)c(Cl)c1)c1ccccc1 (stereo partly drawn) [Example 152, 4-{4-[Acetyl-(2-methoxy-ethyl)-amino]-piperidin-1-yl}-2-(3,4-dichloro-phenyl)-2-methyl-N-((S)-1-phenyl-propyl)-butyramide] | 1.1 | 1.1 |
| CN(Cc1ccc(Cl)cc1)C(=O)C(CCN1CCC(N2CCCC2=O)CC1)c1ccc(F)c(F)c1 (stereo not shown) [Example 116, N-(4-Chloro-benzyl)-2-(3,4-difluoro-phenyl)-N-methyl-4-[4-(2-oxo-pyrrolidin-1-yl)-piperidin-1-yl]-butyramide] | 198 |  |
| CC(CCN1CCC(N2CCCC2=O)CC1)(C(=O)NCc1ccc(Cl)c(Cl)c1)c1ccc(Cl)c(Cl)c1 (stereo not shown) [Example 83, N-(3,4-Dichloro-benzyl)-2-(3,4-dichloro-phenyl)-2-methyl-4-[4-(2-oxo-pyrrolidin-1-yl)-piperidin-1-yl]-butyramide] | 2.3 | 2.3 |
| CCN(C1CCN(CCC(C)(C(=O)N(C)Cc2ccc(Cl)cc2)c2ccc(Cl)c(Cl)c2)CC1)S(C)(=O)=O (stereo not shown) [Example 72, N-(4-Chloro-benzyl)-2-(3,4-dichloro-phenyl)-4-[4-(ethyl-methanesulfonyl-amino)-piperidin-1-yl]-2,N-dimethyl-butyramide] | 2.2 | 2.2 |
| CS(=O)(=O)NC1CCN(CCC(C(=O)NCc2ccc(Cl)c(Cl)c2)c2ccc(Cl)c(Cl)c2)CC1 (stereo not shown) [Example 42, N-(3,4-Dichloro-benzyl)-2-(3,4-dichloro-phenyl)-4-(4-methanesulfonyl-amino-piperidin-1-yl)-butyramide] | 192 |  |
| CN(Cc1ccc(C(F)(F)F)c(F)c1)C(=O)C(C)(CCN1CCC(NS(C)(=O)=O)CC1)c1ccc(Cl)c(Cl)c1 (stereo not shown) [Example 9, 2-(3,4-Dichloro-phenyl)-N-(3-fluoro-4-trifluoromethyl-benzyl)-4-(4-methanesulfonyl-amino-piperidin-1-yl)-2,N-dimethyl-butyramide] | 30 |  |
| CC(=O)N(C1CC1)C1CCN(CCC(C)(C(=O)N[C@@H](CO)c2ccc(F)cc2)c2ccc(Cl)c(Cl)c2)CC1 (single isomer, unassigned; diastereoisomer 1) [Example 140, 4-[4-(Acetyl-cyclopropyl-amino)-piperidin-1-yl]-2-(3,4-dichloro-phenyl)-N-[1-(4-fluoro-phenyl)-2-hydroxy-ethyl]-2-methyl-butyramide (diastereoisomer 1)] | 33.3 |  |
| CN(Cc1ccccc1Cl)C(=O)C(C)(CCN1CCC(N2CCCC2=O)CC1)c1ccc(Cl)c(Cl)c1 (stereo not shown) [Example 90, N-(2-Chloro-benzyl)-2-(3,4-dichloro-phenyl)-2,N-dimethyl-4-[4-(2-oxo-pyrrolidin-1-yl)-piperidin-1-yl]-butyramide] | 2.5 | 2.5 |
| CC(C)(NC(=O)C(C)(CCN1CCC(N2CCCC2=O)CC1)c1ccc(Cl)c(Cl)c1)c1ccccc1 (stereo not shown) [Example 92, 2-(3,4-Dichloro-phenyl)-2-methyl-N-(1-methyl-1-phenyl-ethyl)-4-[4-(2-oxo-pyrrolidin-1-yl)-piperidin-1-yl]-butyramide] | 991 |  |
| CN(C1CCN(CCC(C)(C(=O)NCc2ccccc2)c2ccc(Cl)c(Cl)c2)CC1)S(C)(=O)=O (stereo not shown) [Example 52, N-Benzyl-2-(3,4-dichloro-phenyl)-4-[4-(methanesulfonyl-methyl-amino)-piperidin-1-yl]-2-methyl-butyramide] | 64.8 |  |
| Cc1ccc(CN(C)C(=O)C(F)(CCN2CCC(NS(C)(=O)=O)CC2)c2ccc(Cl)c(Cl)c2)cc1 (stereo not shown) [Example 67, 2-(3,4-Dichloro-phenyl)-2-fluoro-4-(4-methanesulfonyl-amino-piperidin-1-yl)-N-methyl-N-(4-methyl-benzyl)-butyramide] | 323 |  |
